What was measured:
[1] = system: MDCK cells; experiment: MTT cell viability assay on MDCK cells; format: cell-based
Method: The J774.A1 murine macrophage cells were grown in Roswell Park Memorial Institute (RPMI) 1640 medium in the presence of 10% (v/v) FBS and 100 U/ml penicillin−100 µg/ml streptomycin (Gibco, Invitrogen, Thermo Fisher Scientific, NY, USA) at 37°C (humidified) and 5% CO2. […] Madin–Darby canine kidney (MDCK) cells were obtained from the National Centre for Cell Science, Pune, India. MDCK cells were derived from the kidney tissue of an adult female Cocker Spaniel. These were grown in Dulbecco’s modified Eagle’s minimal essential medium (DMEM) in the presence of 10% (v/v) FBS and 100 U/ml penicillin−100 µg/ml streptomycin (Gibco, Invitrogen, Thermo Fisher Scientific, NY, USA) at 37°C (humidified) and 5% CO2 ([Ayana et al., 2018]; [Shivappagowdar et al., 2021]).
All the compounds were dissolved in dimethyl sulfoxide (DMSO) (Sigma-Aldrich) for 1 mM stock solution and were screened against promastigotes at a concentration of 5 µM. […]
To evaluate the cytotoxic effects of 12 compounds on L. donovani promastigotes, LDH assay was performed. This assay involves the reduction of tetrazolium salts to formazan during LDH-mediated catalysis of lactate to pyruvate, which can be detected at 490 nM. […] The selectivity index (SI) for the compound was calculated as the ratio between cytotoxicity (CC50) and activity (IC50) against promastigotes ( Table 1 ).

[2] = system: L. donovani promastigotes; experiment: Complement-mediated cytolysis of promastigotes by PI uptake (10% NHS); format: cell-based, Leishmania donovani
Method: Parasites with an optimum 10% non-heat-inactivated normal human serum (NHS) were incubated with Gly2 at 5-µM concentration for 15 min. Promastigote lysis was detected by uptake of PI, by use of a FACS Diva flow cytometer (Beckton-Dickinson, Pharmingen), in accordance with the manufacturer’s protocol. Promastigotes were washed for excessive stain removal and filter block for PI red fluorescence, 510–560 nm was used ([Moreno et al., 2010]).

[3] = system: L. donovani promastigotes; experiment: JC-1 mitochondrial membrane potential in promastigotes; format: cell-based, Leishmania donovani; conditions: treated promastigotes vs control, 24 h
Method: Mitochondrial membrane (Δψm) potential was examined using 5,6-dichloro-2-[3-(5,6-dichloro-1,3-diethyl-1,3-dihydro-2H-benzimidazol-2-ylidene)-1propenyl]-1,3-diethyl-,iodide (JC-1 dye) (Life Technologies, USA) as a probe. Treated and untreated groups were incubated for 24 h. Cells were washed with PBS and JC-1 labeled, and samples were analyzed through FACS diva (Beckton-Dickinson, Pharmingen). The approximate fluorescence excitation/emission maxima of 514/529 nm for monomeric form and 585/590 nm for J-aggregate form were used. The labeled cells were also allowed to adhere to glass slides for visualization under fluorescence microscope (Nikon Ti eclipse, USA) ([Shivappagowdar et al., 2019]).

[4] = system: L. donovani intracellular amastigotes in J774.A1 macrophages; experiment: Intramacrophage amastigote assay (Giemsa staining, J774.A1); format: cell-based, Leishmania donovani; conditions: treated at IC50 concentration, 24 h; untreated control ~5
Method: For evaluating the efficacy of compounds against intramacrophage amastigotes, Giemsa staining (Sigma-Aldrich) was performed. J774.A1 murine macrophage cells were plated at a cell density of 5 × 10^5 cell/well in a 6-well flat bottom plate. The cells were infected with late-stage L. donovani, rich in promastigotes at a ratio of 10:1. After 6 h, uninfected promastigotes were washed off with PBS.

[5] = system: L. donovani promastigotes (AG83 strain); experiment: LDH cytotoxicity assay on promastigotes, AG83 strain; format: cell-based, Leishmania donovani; conditions: Leishmania donovani; Table 1; activity against promastigotes
Method: Promastigote forms of L. donovani (MHOM/IN/1983/AG83) were cultured at 26°C in M199 (GIBCO, India), pH 7.4, supplemented with 10% (v/v) inactivated fetal bovine serum (FBS, GIBCO, India) and 0.02 mg/ml gentamycin (Life Technologies, USA). The clinical isolate of PKDL, BS12, was obtained as a gift from Prof. Mitali Chatterjee [Department of Pharmacology, Institute of Postgraduate Medical Education and Research (IPGMER), Kolkata, India]. BS12 was routinely cultured at 22°C in M199 (GIBCO, India) with 100 U/ml penicillin-streptomycin (Gibco, Invitrogen, Thermo Fisher Scientific, NY, USA), 8 μM hemin (4 mM stock made in 50% triethanolamine) (Sigma, USA), 25 mM 4-(2-hydroxyethyl)-1-piperazineethanesulfonic acid (HEPES), supplemented with 10% heat-inactivated FBS (GIBCO, India). Cultures were maintained between 10^6 and 10^7 cells/ml for continuous exponential growth. In addition, 1 × 10^6 cells/ml parasite count was constantly maintained for all the experiments ([Ramu et al., 2017]).
All the compounds were dissolved in dimethyl sulfoxide (DMSO) (Sigma-Aldrich) for 1 mM stock solution and were screened against promastigotes at a concentration of 5 µM. For Glycosides (Gly) 2, 6, and 8, a range of concentrations starting from 100 nM to 100 µM were screened against promastigote forms of parasite and mammalian cells. Parasites (AG83 and PKDL strain) treated with amphotericin B (3 µg/ml) (Sigma-Aldrich) were maintained as the positive control.
AG83 strain of L. donovani were exposed to various Gly compound concentrations (100 nM–100 µM) in a 96-well microtiter plate (100 µl/well volume) and were incubated for 72 h at 26°C. Finally, lactate dehydrogenase (LDH) cytotoxic assay was performed as per standard protocol (CytoTox 96 Non-Radioactive Cytotoxicity Assay-Promega, USA). The percent cytotoxicity of test compounds was calculated by normalizing with amphotericin B as 100%. Further percentage growth inhibition was calculated using the formula:
% Growth Inhibition = Gly treated LDH activity- Spontaneous LDH activity
/Maximum LDH activity- Spontaneous LDH activity * 100
As per the formula, the spontaneous LDH Activity = activity of the untreated cells and the maximum LDH activity = activity of the amphotericin B-treated cells. IC50 value for Gly2, 6, and 8 treated was generated for AG83 and PKDL strain of L. donovani using sigmoidal dose–response model with nonlinear regression tool ([Ramu et al., 2017]).

Compound: CC(C)CCOC1O[C@H](CO)[C@@H](O)[C@H](O)[C@H]1O (stereo partly drawn) [Gly2]
- cytotoxicity in MDCK cells [1]: minimum level of cytotoxicity
- promastigote death (PI uptake) ([2]; 10% NHS, Gly2 at 5 µM where treated, control in 10% heat-inactivated FBS 0.06%): ~ 80%
- increment in PI uptake ([2]; Gly2 + 10% NHS vs 10% NHS alone): 24.65%
- mitochondrial uptake of JC-1 dye (ΔΨm) [3]: significantly decreased
- number of amastigotes per infected macrophage [4]: ~ 1 amastigotes/macrophages
- IC50 [5]: 1130 nM
